Measured values published in PubChem BioAssay (NCI).
Several values for one entry are separate records, joined by “and”; a condition that tells them apart may be missing. Identical values can stand only once.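 All cell lines were grown in 96-well plates and treated with compound for 48 hours. GI50: concentration for 50% inhibition of growth. TGI denotes the concentration required for complete inhibition of growth.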

These compounds were tested on MDA-MB-468 breast (assay: NCI-60 cell line screen, 48 h).

| Structure (SMILES) | GI50 | TGI |
| --- | --- | --- |
| CC(C)(Cl)CCC1=C(Cl)C(=O)c2ccccc2C1=O | 1500 nM | 3.49 µM |
| C[C@H](c1ccc(Cl)cc1N)N1C(=O)c2cc(I)ccc2N(CCCN2CCN(C)CC2)C(=O)[C@@H]1c1ccc(Cl)cc1 | 1570 nM | 3.14 µM |
| CCCCCCCCCCCCCOC(=O)c1c(C)[nH]c(/C=C2\N=C(c3ccc[nH]3)C=C2OC)c1C | 385 nM | 44.1 µM |
| O=c1oc2ccc(Cl)cc2c(=O)n1-c1ccc(Cl)cc1F | 382 nM | 1.87 µM |
| Cc1ccc(-c2csc(N(C(=O)N3CCN(c4cc5c(cc4F)c(=O)c(C(=O)O)cn5C4CC4)CC3)c3ccccc3)n2)cc1 | 366 nM | > 100 µM |
| Nc1nc(N)c2nc(CNc3ccc(C(=O)CC(CCC(=O)O)C(=O)O)cc3)cnc2n1 (stereo unspecified) | 208 nM | 2.34 µM |
| CS(=O)(=O)CCNCc1ccc(-c2ccc3ncnc(Nc4ccc(OCc5ccccc5)c(C(F)(F)F)c4)c3c2)o1 | 1860 nM | 6.4 µM |
| Brc1cccc(/C=N/Nc2nc(N/N=C/c3cccc(Br)c3)nc(N3CCOCC3)n2)c1 | 1910 nM | 6.09 µM |
| NC1=NC(=O)N2CC12 (stereo unspecified) | 76800 nM | 294 µM |
| CNC(=O)c1ccc(Nc2ncc(C(F)(F)F)c(NCc3nccnc3N(C)S(C)(=O)=O)n2)cc1 | 1590 nM and 2060 nM and 1980 nM | 4.99 µM and 5.01 µM and 5.29 µM |
| COc1ccc(C(=S)c2cc(OC)c(OC)c(OC)c2)cc1OC(=O)CCl | 96.4 nM |  |
| COc1ccc(-c2coc3ncnc(N)c23)cc1 | > 25000 nM | > 25 µM |
| O=S(=O)(NCCNc1cc(-c2cn(-c3ccccc3)nc2-c2cccc(O)c2)ccn1)c1ccc(C(F)(F)F)cc1 | 2050 nM | 5.02 µM |
| COc1ccc(C(=O)/C=C/c2cc3ccccc3[nH]c2=O)cc1 | 10500 nM | 23.1 µM |
| COc1ccc(OC)c(/C=C/c2nnc(Nc3ccc(Cl)cc3)o2)c1 | 16400 nM | > 100 µM |
| O=C1C=C(Nc2ccccc2)c2ncccc2C1=O | 1570 nM | 3.16 µM |
| Nc1ccccc1NC(=O)c1ccc(CSc2nc(N3CCOCC3)c3cccn3n2)cc1 | 1720 nM | 6.47 µM |
| CCOC(=O)[C@H](CSSc1ncnc2cc[nH]c12)NC(=O)[C@@H](C)c1ccc2cc(OC)ccc2c1 | 179 nM | 91.7 µM |
| CCCCCCN(CCCCCC)C(=N)c1ccnc2ccccc12 | 3130 nM | 11.1 µM |
| CS(=O)(=O)c1ccc(N/N=C/c2c(-c3ccc(S(C)(=O)=O)cc3)[nH]c3ccc(F)cc23)cc1 | 3490 nM | > 50 µM |
| O=C1C(=O)c2cc([N+](=O)[O-])ccc2-c2ccccc21 | 1640 nM | 3.19 µM |

| Structure (SMILES) | GI50 | TGI |
| --- | --- | --- |
| COc1cc2c(c(OC)c1OC)-c1ccc(OC)c(=O)cc1[C@@H](NC(=O)CCl)CC2 | < 10 nM | < 0.01 µM |
| Nc1ncc(-c2cnn(C3CCNCC3)c2)cc1-c1nc2ccccc2o1 | 367 nM | 2.33 µM |
| CCC1CCc2nc3sc(C(=O)Nc4ccccc4F)c(N)c3cc2C1 (stereo unspecified) | 347 nM | > 100 µM |
| Cc1cc(NC(=O)c2ccc(NS(=O)(=O)CCO)cc2N2CCC3(CC2)CC3)nc(N2CCC(F)(F)CC2)n1 | 69.4 nM | 2.93 µM |
| CCCCCCCCN(CCCCCCCC)C(=N)c1ccnc2ccccc12 | 342 nM | 1.27 µM |
| CCN(Cc1ccc(F)cc1)c1ccc(CO)c(Cl)c1 | 14.7 nM | 0.0332 µM |
| CN1CCN(C(=O)c2ccc(NC(=O)Nc3ccc(N(C)c4ccnc(Nc5ccc(CS(C)(=O)=O)cc5)n4)cc3)cc2)CC1 | 4720 nM | > 25 µM |
| COc1ccc(NC(=O)[C@H](C)NC(=O)OC(C)(C)C)cc1C(=O)Nc1cccc(-c2cc(=O)c3c(OC)c(OC)c(OC)cc3o2)c1 | 2250 nM | 6.28 µM |
| CN(C)CC/C=C1\c2ccccc2Sc2ccc(Cl)cc21 | 1390 nM | 3.02 µM |
| C#C[C@@]1(O)[C@@H](CO)O[C@@H](n2cc(Cl)c3c(N)ncnc32)[C@@H]1O | 180 nM | 0.451 µM |
| CCc1ccc(C2=C/C(=C/c3ccc(Cl)cc3)C(=O)N2CCc2ccc(S(N)(=O)=O)cc2)cc1 | 1940 nM | 5.25 µM |
| O=C1C2CC3C(CC2C(=O)[N]1[Sn]([c]1ccccc1)([c]1ccccc1)[c]1ccccc1)C1(Cl)C(Cl)=C(Cl)C3(Cl)C1(Cl)Cl (stereo unspecified) | 120 nM | 0.28 µM |
| COc1cc2[nH]c(C(=O)c3cc(OC)c(OC)c(OC)c3)c(N)c2cc1C#CCO | 183 nM | > 100 µM |
| C/C(=C\c1ccn(-c2ccc(N)c(C(F)(F)F)c2)n1)[C@@H]1C[C@@H]2O[C@]2(C)CCC[C@H](C)[C@H](O)[C@@H](C)C(=O)C(C)(C)[C@@H](O)CC(=O)O1 | 10.6 nM | 14.2 µM |
| COc1cccc(-c2nn(-c3ccccc3)cc2-c2ccnc(NCCNS(=O)(=O)c3ccc(C(F)(F)F)cc3)c2)c1 | 3310 nM | 15.1 µM |
| CCN1C(=O)N(CC)C2C1NN=c1s/c(=C3\C(=O)N(CCC(C)C)c4ccccc43)c(=O)n12 (stereo unspecified) | 283 nM | 0.72 µM |
| O=c1ncc(-c2ccc(C(F)(F)F)cc2)c(NC2CCCCCC2)[nH]1 | 21000 nM | 51.4 µM |
| COc1cc2c(c(OC)c1OC)-c1ccc([O-])c(=O)cc1[C@@H](NC(C)=O)CC2.COc1cc2c(c(OC)c1OC)-c1ccc([O-])c(=O)cc1[C@@H](NC(C)=O)CC2.[Cu+2] | 4700 nM | 43.2 µM |
| CC(C)(C)c1cc(NC(=O)Nc2ccc(-c3cn4c5c(sc4n3)CCc3cn(CCCN4CCCCC4)cc3-5)cc2)no1 | 1840 nM | 3.72 µM |
| COc1cc(N2CCC(N3CCN(C)CC3)CC2)ccc1Nc1ncc(Cl)c(Nc2ccccc2P(C)(C)=O)n1 | 1680 nM | 5.29 µM |
